pIC50: −log10 of the molar value.
Tests used:
JAK2 = JAK2 (Homo sapiens, UniProt O60674); test: in vitro kinase profiling, more than 450 human kinases; assay type: binding; conditions: data not shown
Description: (§1) To determine whether LY2784544 is able to sensitize SKOV3 CR cells to cisplatin in vivo, SKOV3 CR cells were implanted subcutaneously into nude mice. When the tumor volume reached 100 mm^3, mice were randomized to receive intraperitoneal injections of vehicle, cisplatin (8 mg/kg on days 1 and 8), LY2784544 (15 mg/kg/d from day 1 to day 14), or the combination of cisplatin and LY2784544. […] To evaluate whether this in vivo tumor suppression was through inhibition of the JAK2 pathway and increased apoptosis, the tumor samples four days after full dosage treatment were collected. […] Quantification of phosphorylated JAK2 and TUNEL staining in tumor tissues treated was performed (FIG. 28). […] To confirm the selectivity of LY2784544, an in vitro kinase profiling was conducted to examine the interaction of LY2784544 with more than 450 human kinases.

[1] = tested on: SKOV3 CR xenograft tumors; test: SKOV3 CR xenograft tumors in nude mice; assay type: in vivo
Description: FIG. 26 are line graphs showing the growth curves of tumors (A) and Kaplan-Meier survival curves (C) from mice treated with vehicle, LY2784544 (15 mg/kg/day intraperitoneally), cisplatin (8 mg/kg/week intraperitoneally), or LY2784544 plus cisplatin (combo) for 2 weeks. A photograph of the representative tumor from mice in each treatment arm is also shown (B). Data in (A) are represented as mean±SEM, n=6 mice/group. *p<0.05, **p<0.01, ***p<0.001. Data in (B) are represented as n=6 mice/group. *p<0.05, **p<0.01. Ruler scale in (B) is in cm.
FIG. 27 is an illustration showing the IHC and TUNEL staining of tumors from mice in each treatment arm sacrificed after 4 days of treatment. n=3 mice/group. Bar=50 μm.
as §1

IGROV1 cells = test: cell proliferation assay, IGROV1 parental cells; assay type: cell-based; conditions: 5 days
Excerpt: FIG. 60 is a line graph showing the proliferation of IGROV1 parental and IGROV1 CR cells treated with increasing concentrations of cisplatin for 5 days (left). Data are represented as mean±SD from three independent experiments performed in triplicate. Indicated IC50 values represent the mean of two independent experiments performed in triplicate.
Using a similar approach as described in FIG. 1, another cisplatin resistant ovarian cancer cell line IGROV1 CR was raised from its cisplatin sensitive parental cell IGROV1 cells. […] The cell proliferation of IGROV1 CR cells treated with cisplatin, LY2784544 or both LY2784544 and cisplatin was examined.

SKOV3 xenograft tumors = test: SKOV3 and SKOV3 CR xenograft tumors treated with cisplatin; assay type: in vivo, nude mice
Description: FIG. 4 is an illustration showing representative TUNEL staining (A) and a bar graph (B) of SKOV3 and SKOV3 CR xenograft tumors treated with cisplatin for two weeks (2 mg/kg or 4 mg/kg cisplatin twice per week) and quantified apoptosis percentage (B). n−3 mice/group. Bar in (A)−50 μm. Data are represented as mean±SD. **p<0.01, ***p<0.001.
FIG. 52 is a bar graph showing IL-11 levels measured by ELISA in plasma of mice bearing SKOV3 xenograft tumors treated with vehicle or cisplatin (2-6 mg/kg/twice a week intraperitoneally for 2 weeks). Data are represented as mean±SD. n=3 mice/group. **p<0.01, ***p<0.001.
Since cisplatin exerts its anticancer effect mainly through its ability to cause DNA damage, resulting in apoptosis, the apoptotic cells in both SKOV3 and SKOV CR cells were measured using Annexin V and Propidium Iodide staining. […] To test whether SKOV3 CR cells are resistant to cisplatin-induced apoptosis in vivo, both SKOV3 and SKOV3 CR cells were injected into nude mice to form xenograft tumors. Once the tumor size reached 100-150 mm^3, cisplatin was given to mice by intraperitoneal injections twice a week for 2 weeks. Three days after treatment, the apoptosis in tumors was examined by TUNEL staining. […] Currently, carboplatin is a more commonly used platinum drug employed clinically to treat ovarian patients. Ozols et al., J Clin Oncol 21: 3194-3200 (2003). Thus, it was tested whether SKOV3 CR cells are also resistant to carboplatin (Sigma-Aldrich).
To further test whether ovarian cancer cells have a similar response to cisplatin in vivo, SKOV3 xenograft tumors were treated with various doses of cisplatin (2 mg-6 mg/kg/twice per week) for 2 weeks. Mice were sacrificed 4 days after the last treatment, and blood samples and xenograft tumors were collected to examine IL-11 expression. […] A high dose of cisplatin generated the high levels of both IL-11 and pJAK2 (Y1007/1008) on tumors (FIG. 53). Thus, cisplatin is able to promote expression of IL-11 as well as JAK2 pathway both in vitro and in vivo.

[2] = tumor samples four days after full dosage treatment
[3] = SKOV3 xenograft, cisplatin 2-6 mg/kg twice per week for 2 weeks

JAK2, sequence (O60674 whole entry): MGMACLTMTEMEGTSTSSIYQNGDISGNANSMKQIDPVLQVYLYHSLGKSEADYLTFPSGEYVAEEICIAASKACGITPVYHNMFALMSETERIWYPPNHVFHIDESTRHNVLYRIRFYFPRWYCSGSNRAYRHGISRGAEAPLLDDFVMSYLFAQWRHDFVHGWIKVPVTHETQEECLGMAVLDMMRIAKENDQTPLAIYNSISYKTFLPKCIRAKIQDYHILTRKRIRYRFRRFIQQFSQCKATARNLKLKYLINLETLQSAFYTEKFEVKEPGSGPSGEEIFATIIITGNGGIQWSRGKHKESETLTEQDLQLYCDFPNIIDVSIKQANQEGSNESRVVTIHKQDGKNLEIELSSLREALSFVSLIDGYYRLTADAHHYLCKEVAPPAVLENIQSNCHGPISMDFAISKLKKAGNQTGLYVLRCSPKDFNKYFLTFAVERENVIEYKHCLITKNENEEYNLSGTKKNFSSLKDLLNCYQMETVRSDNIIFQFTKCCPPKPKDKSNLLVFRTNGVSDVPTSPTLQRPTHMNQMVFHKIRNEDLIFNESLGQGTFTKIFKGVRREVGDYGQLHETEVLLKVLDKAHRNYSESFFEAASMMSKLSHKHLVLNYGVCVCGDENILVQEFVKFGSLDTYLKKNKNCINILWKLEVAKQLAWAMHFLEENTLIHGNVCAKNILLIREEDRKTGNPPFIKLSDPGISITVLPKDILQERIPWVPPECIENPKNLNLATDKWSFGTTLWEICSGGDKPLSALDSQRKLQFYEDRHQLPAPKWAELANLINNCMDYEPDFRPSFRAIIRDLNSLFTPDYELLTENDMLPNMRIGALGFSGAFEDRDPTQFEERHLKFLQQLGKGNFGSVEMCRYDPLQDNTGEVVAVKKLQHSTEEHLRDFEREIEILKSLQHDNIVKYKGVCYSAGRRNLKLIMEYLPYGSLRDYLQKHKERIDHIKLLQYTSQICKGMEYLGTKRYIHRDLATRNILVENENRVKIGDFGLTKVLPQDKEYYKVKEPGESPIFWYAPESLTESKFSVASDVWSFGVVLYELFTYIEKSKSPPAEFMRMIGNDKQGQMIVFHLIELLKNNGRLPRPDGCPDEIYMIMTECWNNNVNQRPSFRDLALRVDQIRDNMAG

Row | Compound | binding selectivity among kinases (JAK2) | tumor growth, combination versus vehicle or single agents ([1]; LY2784544 15 mg/kg/d i.p. day 1-14 plus cisplatin 8 mg/kg i.p. days 1 and 8) | survival of mice, combination ([1]; LY2784544 15 mg/kg/d i.p. plus cisplatin 8 mg/kg i.p. days 1 and 8) | histopathology of liver and kidney ([1]; any treated groups (cisplatin, LY2784544, combination), 4 days after final treatment) | mouse body weight, combined treatment with cisplatin ([1]; during treatment) | apoptosis in tumors (TUNEL), combined with cisplatin [1, 2] | phosphorylation of JAK2 in tumors (IHC) [1, 2] | pIC50 (IGROV1 cells) | IL-11 and pJAK2 levels in tumors (IHC) (SKOV3 xenograft tumors; [3]) | human IL-11 levels in serum (SKOV3 xenograft tumors; [3]) | apoptosis in xenograft tumors (TUNEL) (SKOV3 xenograft tumors; cisplatin i.p. twice a week for 2 weeks (2 or 4 mg/kg), three days after treatment)
1 | Cc1cc(Nc2cc(CN3CCOCC3)c3nc(C)c(Cc4ccc(Cl)cc4F)n3n2)n[nH]1 [LY2784544] | stronger binding to JAK2 than JAK1 and TYK2 | significantly reduced the tumor growth | improved survival of the mice | No histopathological changes and lesions in liver and kidney | no significant reduction in mouse body weight | significantly induced the apoptosis | efficiently reduce the phosphorylation of JAK2 in vivo | – | – | – | –
2 | N.N.[Cl][Pt][Cl] [cisplatin] | – | – | – | – | – | – | – | 6.29 | significant increase of IL-11 as well as pJAK2 (Y1007/1008) levels in SKOV3 tumors | dramatically increased human IL-11 levels in serum of nude mice | apoptotic population was significantly increased in SKOV3 but not in SKOV3 CR cells

Reference: patent US20200031920A1, “Combination Therapy for Treating Cancer” (The George Washington University, priority 2017, published 2020)
